# Experimental data reported in patent US20100015079A1, “Cosmetic Compositions for the Protection or Regeneration of Hair or Skin” (Institut Dr. Schrader, priority 2006, published 2010).
# Assay: UVA-induced photon emission (chemiluminescence, ICL-H) of permanently waved hair tresses after treatment with rinse-off formulation
# Design: species or system human
# Conditions: Example 1; for UVA-induced photon emission (chemiluminescence), measure of hair damage: measured two days after treatment, damage by permanent wave alone 555%
# Protocol: The effect of taurinamide hydrochloride on the regeneration of permanently waved hair was investigated. For this, three tresses of European hair (left natural, dense, color 7.0; Kerling) were subjected to a permanent wave treatment. The permanent wave solution had the following composition:
# The tresses were washed for 1 min in a shaking machine (13.5% Texapon K12P in demineralized water) and rinsed for 2 minutes with lukewarm water. The tresses were saturated with permanent waving solution until drop-wet (10 ml for 3 tresses). After a contact time of 30 minutes, they were rinsed for 3 minutes with lukewarm water. The treatment with the permanent waving solution was repeated three times. The drop-wet tresses were then saturated with neutralizing solution (10 ml for 3 tresses). After a contact time of 10 minutes, they were rinsed for 3 minutes with lukewarm water.
# To determine the effect of taurinamide, the following rinse-off formulations which comprised varying amounts of taurinamide hydrochloride were used:
# The formulations were applied to the tresses from both sides using a paint brush on a glass plate (30 g for 3 tresses). After a contact time of 10 minutes, they were rinsed for 3 minutes with lukewarm water. The hair was then left to dry in the air.
# Two days after the treatment, the UVA-induced photon emission (chemiluminescence) was measured. The photon emission is a measure of the hair damage. It was measured in accordance with the method described by S. Benard, H. Nerenz, M. Rohr and A. Schrader in IFSCC magazine Vol. 4 (2001), 185-189 (ICL-H (Induced Chemiluminescence of Human Hair) A new method for quantitative analysis of hair stress).
smiles,measurement,setting,value
"Cl.NCCS(N)(=O)=O [Taurinamide, taurinamide hydrochloride]","UVA-induced photon emission (chemiluminescence), measure of hair damage","0.1% by wt. taurinamide HCl rinse-off formulation 1.1, 10 min contact",329%
same,"UVA-induced photon emission (chemiluminescence), measure of hair damage","0.5% by wt. taurinamide HCl rinse-off formulation 1.2, 10 min contact",209%
same,"UVA-induced photon emission (chemiluminescence), measure of hair damage","1% by wt. taurinamide HCl rinse-off formulation 1.3, 10 min contact",185%
same,"UVA-induced photon emission (chemiluminescence), measure of hair damage","5% by wt. taurinamide HCl rinse-off formulation 1.4, 10 min contact",118%
same,effect of treatment on hair damage (in words),"permanently waved hair, 0.1-5% taurinamide formulations",significantly reduces hair damage
